Assay: gradient 5% acetonitrile 3 min, to 50% in 2 min, to 85% in 15 min, held 3 min, 100 µL/min
Settings: column: Zorbax Extend-C18 2.1 x 50 mm; eluents: water / acetonitrile, 0.1% formic acid
Outline: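 The mobile phases were water and acetonitrile, each with 0.1% formic acid, pumped at 100 μL/min through a Zorbax Extend-C18 column (2.1 × 50 mm, 1.8 μm). Pure standards were injected as mixtures of ~100 molecules and detected by a quadrupole time-of-flight mass spectrometer in positive and negative ionization mode. Retention time came from computationally picked adduct peaks, each inspected by hand.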

| Structure (SMILES) | RP-LC retention time [s] |
| --- | --- |
| O=c1c2scc(-c3cccc(F)c3)c2ncn1Cc1cccc(Br)c1 | 1180 |
| COc1ccc(CCC(=O)NCCc2cn(C)c3ncccc23)cc1 | 669 |
| CCn1c(=O)cc(OCC(=O)N2CCN(c3ccccn3)CC2)c2ccccc21 | 584 |
| Cc1cc(C)c(C(=O)N2CCC(CC(=O)NC(c3cccs3)C(C)C)CC2)[nH]1 (configuration not stated) | 863 |
| CCCn1cc(CCNS(=O)(=O)c2ccc(C)cc2C)c2cccnc21 | 924 |
| COC(=O)c1c(C)[nH]c(C(=O)N2CCCC(C(=O)NC3CC3)C2)c1C (configuration not stated) | 627 |
| CCNC(=O)c1c2c(nc3ccc(F)cc13)CCCC2 | 588 |
| COCCc1noc(-c2nc(-c3ccccc3F)no2)n1 | 926 |
| Cc1nn(CCC(=O)NC2CCCCCC2)c(=O)c2nn(-c3ccccc3)c(C)c12 | 830 |
| CCOC(=O)c1c(C)oc2nc(C)nc(NCCc3ccc(Cl)cc3)c12 | 1380 |
| O=C(Nc1ccccc1F)N1CCN(Cc2nc3ccc(Cl)cc3o2)CC1 | 745 |
| Cc1cc(NC(=O)CN2C(=O)CN(C)C(=O)c3ccccc32)ccc1Br | 765 |
| CCn1nccc1-c1cccc(-c2noc(C(C)NC(=O)c3ccccc3)n2)c1 (configuration not stated) | 929 |
| COc1nc2ccccc2nc1N1CCCC(C(=O)N2CCN(c3ccccc3Cl)CC2)C1 (configuration not stated) | 1360 |
| CCc1ccc(S(=O)(=O)c2cnc3ccc(OC)cc3c2N2CCN(C)CC2)cc1 | 653 |
| CCOC(=O)C(=O)NCc1nnnn1C1CCCCC1 | 655 |
| CCCn1cc(CCNS(=O)(=O)CCC)c2cccnc21 | 720 |
| NC1=N[C@@]2(c3cc(NC(=O)c4ccc(F)cn4)ccc3F)COC[C@H]2CS1 | 674 |
| CCn1cc(-c2nc(C)c(C(=O)Nc3cccc(OC)c3)s2)c2cccnc21 | 983 |

| Structure (SMILES) | RP-LC retention time [s] |
| --- | --- |
| Cc1ccc(Cn2c(=O)c3nn(C)cc3n3c(=O)n(Cc4ccc(F)cc4)nc23)cc1 | 947 |
| Cc1ccc(C(=O)N2CCC(n3c(-c4ccoc4)nc4cccnc43)C2)cc1C (configuration not stated) | 806 |
| CC(C)Cn1cc(CCNC(=O)Nc2ccc(Cl)cc2)c2cccnc21 | 889 |
| CS(=O)(=O)N(C1CCOCC1)C1CCN(C(=O)c2ccc(Cl)cc2)CC1 | 840 |
| CC(C)N1C(=O)C(C)(C(=O)NCc2ccccc2Cl)Oc2cccnc21 (configuration not stated) | 974 |
| Cc1cccc(-c2nnc(-c3nc(NCc4cccnc4)c4ccccc4n3)o2)c1 | 691 |
| Cc1ccccc1NC(=O)c1cc(C(C)(C)C)n2nccc2n1 | 1310 |
| Cc1ccc(CNC(=O)C2(C)Cn3cnc(C(=O)NCc4cccc(C)c4)c3C(=O)N2C2CC2)cc1 (configuration not stated) | 813 |
| O=C(CCCN1CCN(Cc2ccc(F)cc2)C(=O)C1=O)Nc1ccc(Br)cc1F | 814 |
| CC(=O)N(C)c1ccc(NS(=O)(=O)c2ccc(C)cc2)c([N+](=O)[O-])c1 | 742 |
| CN(C)c1ncncc1N1CCC(C(=O)N2CCOCC2)CC1 | 567 |
| Fc1ccc(CN2CCCCC2c2nc(-c3cnccn3)no2)cc1F (configuration not stated) | 849 |
| CN1CCN(C(=O)C2CC(=O)N(c3ccc4c(c3)CCN4C(=O)C3CC3)C2)CC1 (configuration not stated) | 570 |
| Cc1ccc(S(=O)(=O)Nc2ccc(C3(C(=O)NCC4CCCO4)CC3)cc2)cc1 (configuration not stated) | 824 |
| CCOc1ccc(NC(=O)c2cccc3ccccc23)c([N+](=O)[O-])c1 | 1050 |
| CC(C)n1cc(S(=O)(=O)Nc2ccc(F)cc2)c2cccnc21 | 869 |
| COCc1cc(=O)n(CC(=O)Nc2ccc(F)c(Cl)c2)c(N2CCOCC2)n1 | 917 |
| CCc1noc(-c2ccnc(-n3ncc(C(=O)N4CCOCC4)c3C)c2)n1 | 760 |

Source: the METLIN SMRT retention time set (Domingo-Almenara et al. 2019)
